In assay [1] the target is T1, human GST-AMPK α1β1γ1 (Homo sapiens, UniProt Q13131+Q9Y478).
T1 construct: triply transfected with full-length AMPK α1 or α2 (NH2-terminal GST fusion, pDEST27 vector); full-length AMPK α1 or α2 (NH2-terminal GST fusion, pDEST27 vector), β1 or β2 (COOH-terminal FLAG fusion, pcDNA3.1 vector); FLAG (C); made in house; host or cells: HEK293T/17 cells, transient triple transfection
As to the kind of experiment: Radiolabel SAMS kinase assay, GST-AMPK from HEK293T/17 cells immobilised on glutathione-Sepharose. The class given is biochemical. An excerpt:
We generated a series of compounds to investigate whether modification of the SC4 2-hydroxybiphenyl LHS fragment affects isoform selectivity, some of which (MSG008-MSG011) are presented in Table 1. We also synthesised compound MSG012 (example I-3-54 [32]), which was reported to activate α2β2γ1 with ∼100-fold greater potency compared with α1β1γ1. MSG012 differs from SC4 by substitution of the 2-hydroxyphenyl LHS fragment with 3-cyclohexen-4-yl-1-carboxylic acid, and 2-methylbenzoic acid RHS fragment with 1-hydroxy-N,N-dimethylcyclohexan-4-yl-1-carboxamide. Our initial screen involved measuring the activity of recombinant human GST-AMPK complexes expressed in HEK293T/17 cells and immobilised on glutathione-Sepharose (Supplementary Figure S1). Enzyme activity was measured by radiolabelling the synthetic SAMS peptide substrate in the absence or presence of 1 µM compound. Consistent with our previous characterisation, SC4 activated α1β1γ1, α2β1γ1 and α2β2γ1 >2.3-fold, and weakly activated α1β2γ1 1.3-fold (Figure 1A). […] The γ isoform had little influence on AMPK activation by MSG011 as most γ2 and γ3 complexes were activated >2.2-fold at 1 µM, with α1β2γ2 being the only exception (1.6-fold activation). […] Accordingly, MSG010, MSG011 and MSG012 can be classified as pan AMPK activators.
Adherent HEK293T/17 cells at ∼50% confluency were triply transfected with full-length AMPK α1 or α2 (NH2-terminal GST fusion, pDEST27 vector), β1 or β2 (COOH-terminal FLAG fusion, pcDNA3.1 vector), and γ1, γ2 or γ3 (NH2-terminal HA fusion, pMT2 vector) in the presence of FuGENE HD transfection reagent (Promega) as per the manufacturers protocol. Cells were harvested 48 hours post-transfection by first gently washing in ice cold phosphate buffered saline (PBS; Sigma–Aldrich), then scraping in ice cold lysis buffer (50 mM TRIS pH 7.5, 150 mM NaCl, 10% (v/v) glycerol, 50 mM NaF, 5 mM sodium pyrophosphate, 1% (v/v) Triton X-100, cOmplete protease inhibitor cocktail). Lysates were clarified by centrifugation (16 000g, 3 min, 4°C), flash frozen in liquid N2 and stored at −80°C until analysis. For radioactive kinase assays, AMPK was immobilised on glutathione Sepharose 4B resin (GE Healthcare) by incubation with lysates for 1.5 h at 4°C. Following centrifugation (1000g, 3 min, 4°C), the resin was washed twice in purification buffer (50 mM HEPES pH 7.4, 150 mM NaCl, 10% (v/v) glycerol, 0.02% (v/v) Tween-20), once in 50 mM HEPES pH 7.4 with 0.02% (v/v) Tween-20, then resuspended to a 50% slurry with 50 mM HEPES pH 7.4 and 10 µl added to the activity assays. For in solution kinase assays, α1β1γ1 AMPK was eluted from glutathione-Sepharose by incubating with purification buffer supplemented with 40 mM reduced glutathione (Sigma–Aldrich).
AMPK activity was determined by phosphorylation of the SAMS peptide (Purar Chemicals, sequence: NH2-HMRSAMSGLHLVKRR-COOH) in a 25 µl reaction volume containing 100 µM SAMS peptide, 5 mM MgCl2, 200 µM ATP, [γ-^32P]-ATP (PerkinElmer) and assay buffer (50 mM HEPES pH 7.4, 1 mM DTT and 0.02% (v/v) Tween-20) and purified AMPK. Phosphotransferase activity was conducted at 30°C for 10 min and reactions were quenched by spotting 15 µl onto phosphocellulose ion-exchange chromatography paper (made in-house), followed by repeated washes in 1% H3PO4 (Merck Millipore). Ultima Gold liquid scintillation fluid (5 ml; PerkinElmer) was added to vials containing dried phosphocellulose papers, and the level of ^32P-transfer to the SAMS peptide was determined using a Tri-Carb 2900TR liquid scintillation counter (PerkinElmer).

Assay [2] addresses T2, human GST-AMPK α1β2γ1 (Homo sapiens, UniProt O43741+Q13131).
T2 construct: triply transfected with full-length AMPK α1 or α2 (NH2-terminal GST fusion, pDEST27 vector); full-length AMPK α1 or α2 (NH2-terminal GST fusion, pDEST27 vector), β1 or β2 (COOH-terminal FLAG fusion, pcDNA3.1 vector); FLAG (C); made in house; host or cells: HEK293T/17 cells, transient triple transfection
Described as above. The class given is biochemical.

Assay [3] deals with T3, human GST-AMPK α2β1γ1 (Homo sapiens, UniProt P54646+Q9Y478).
T3 construct: triply transfected with full-length AMPK α1 or α2 (NH2-terminal GST fusion, pDEST27 vector); full-length AMPK α1 or α2 (NH2-terminal GST fusion, pDEST27 vector), β1 or β2 (COOH-terminal FLAG fusion, pcDNA3.1 vector); FLAG (C); made in house; host or cells: HEK293T/17 cells, transient triple transfection
T3 sequence (P54646 whole entry, the tested form may be a part): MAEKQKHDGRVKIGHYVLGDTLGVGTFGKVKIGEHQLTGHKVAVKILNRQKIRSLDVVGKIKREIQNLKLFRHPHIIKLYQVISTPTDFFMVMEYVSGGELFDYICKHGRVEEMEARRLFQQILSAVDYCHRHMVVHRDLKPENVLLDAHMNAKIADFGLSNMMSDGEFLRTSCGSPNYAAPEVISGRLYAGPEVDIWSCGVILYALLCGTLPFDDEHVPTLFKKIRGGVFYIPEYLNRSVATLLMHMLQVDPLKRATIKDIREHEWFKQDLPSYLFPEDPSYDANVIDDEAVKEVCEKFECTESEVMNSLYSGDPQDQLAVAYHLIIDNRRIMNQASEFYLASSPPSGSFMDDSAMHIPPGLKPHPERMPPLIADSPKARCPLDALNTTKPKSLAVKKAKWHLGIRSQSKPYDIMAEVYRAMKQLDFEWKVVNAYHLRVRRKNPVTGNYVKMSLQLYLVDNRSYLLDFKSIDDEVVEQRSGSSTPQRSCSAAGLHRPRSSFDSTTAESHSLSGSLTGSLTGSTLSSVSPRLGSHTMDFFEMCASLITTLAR
T3 sequence (Q9Y478 whole entry, the tested form may be a part): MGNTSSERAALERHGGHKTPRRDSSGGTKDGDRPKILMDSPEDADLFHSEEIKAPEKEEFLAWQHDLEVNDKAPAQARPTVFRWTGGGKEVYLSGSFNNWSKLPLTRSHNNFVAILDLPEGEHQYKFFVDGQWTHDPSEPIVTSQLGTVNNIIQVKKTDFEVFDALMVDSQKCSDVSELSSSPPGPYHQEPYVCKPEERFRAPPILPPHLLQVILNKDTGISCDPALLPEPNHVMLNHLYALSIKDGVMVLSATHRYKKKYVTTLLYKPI
T3 sequence (P54619 whole entry partner, the tested form may be a part): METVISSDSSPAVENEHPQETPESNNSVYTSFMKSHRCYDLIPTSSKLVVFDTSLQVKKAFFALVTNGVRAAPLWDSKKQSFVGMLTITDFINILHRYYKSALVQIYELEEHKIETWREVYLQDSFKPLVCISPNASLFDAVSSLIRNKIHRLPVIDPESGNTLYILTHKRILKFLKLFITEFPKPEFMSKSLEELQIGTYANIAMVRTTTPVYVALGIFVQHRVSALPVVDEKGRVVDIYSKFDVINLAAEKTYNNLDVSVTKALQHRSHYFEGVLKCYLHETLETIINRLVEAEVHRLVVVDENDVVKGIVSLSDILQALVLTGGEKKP
The assay is described as above. The assay is classed as biochemical.

Assay [4] addresses T4, human GST-AMPK α2β2γ1 (Homo sapiens, UniProt O43741+P54646).
T4 construct: triply transfected with full-length AMPK α1 or α2 (NH2-terminal GST fusion, pDEST27 vector); full-length AMPK α1 or α2 (NH2-terminal GST fusion, pDEST27 vector), β1 or β2 (COOH-terminal FLAG fusion, pcDNA3.1 vector); FLAG (C); made in house; host or cells: HEK293T/17 cells, transient triple transfection
Described as above. The class given is biochemical.

The test system of assay [5] is α2β2γ1 AMPK. Details: method as in earlier work. To be noted: reported for example I-3-54; cited from earlier work.

Molecules are shown by their SMILES.

As usually defined, the EC50 is the concentration giving half of the maximal effect. A lower EC50 goes with a more potent agent.

T4 sequence (P54646 whole entry, the tested form may be a part): as the sequence (P54646 whole entry, the tested form may be a part) above
T4 sequence (O43741 whole entry, the tested form may be a part): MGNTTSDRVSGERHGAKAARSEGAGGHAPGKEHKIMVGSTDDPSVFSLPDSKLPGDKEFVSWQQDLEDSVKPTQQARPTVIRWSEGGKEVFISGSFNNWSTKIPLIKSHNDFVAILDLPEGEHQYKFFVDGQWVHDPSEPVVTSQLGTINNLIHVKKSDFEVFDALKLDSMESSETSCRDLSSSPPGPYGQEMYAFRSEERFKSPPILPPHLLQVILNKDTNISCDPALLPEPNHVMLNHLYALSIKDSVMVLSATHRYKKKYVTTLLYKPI
T4 sequence (P54619 whole entry partner, the tested form may be a part): as the sequence (P54619 whole entry partner, the tested form may be a part) above
T1 sequence (Q13131 whole entry, the tested form may be a part): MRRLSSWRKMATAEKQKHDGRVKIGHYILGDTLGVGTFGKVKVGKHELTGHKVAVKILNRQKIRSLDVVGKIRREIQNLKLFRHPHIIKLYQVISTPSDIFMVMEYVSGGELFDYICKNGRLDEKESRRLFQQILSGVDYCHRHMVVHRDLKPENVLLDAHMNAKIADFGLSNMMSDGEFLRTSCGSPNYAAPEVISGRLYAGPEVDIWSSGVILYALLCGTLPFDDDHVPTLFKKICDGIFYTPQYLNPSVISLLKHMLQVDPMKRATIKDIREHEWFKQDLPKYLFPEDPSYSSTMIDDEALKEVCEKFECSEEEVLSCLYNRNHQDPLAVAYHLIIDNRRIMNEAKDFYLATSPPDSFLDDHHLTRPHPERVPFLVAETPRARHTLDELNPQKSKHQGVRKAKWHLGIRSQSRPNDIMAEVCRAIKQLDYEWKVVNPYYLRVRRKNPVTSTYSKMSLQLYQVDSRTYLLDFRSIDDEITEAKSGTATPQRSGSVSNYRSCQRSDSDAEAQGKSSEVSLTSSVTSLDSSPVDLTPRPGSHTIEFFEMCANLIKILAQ
T1 sequence (Q9Y478 whole entry, the tested form may be a part): as the sequence (Q9Y478 whole entry, the tested form may be a part) above
T1 sequence (P54619 whole entry partner, the tested form may be a part): as the sequence (P54619 whole entry partner, the tested form may be a part) above
T2 sequence (Q13131 whole entry, the tested form may be a part): as the sequence (Q13131 whole entry, the tested form may be a part) above
T2 sequence (O43741 whole entry, the tested form may be a part): as the sequence (O43741 whole entry, the tested form may be a part) above
T2 sequence (P54619 whole entry partner, the tested form may be a part): as the sequence (P54619 whole entry partner, the tested form may be a part) above

On to `CN(C)C(=O)C1(O)CCC(Oc2nc3nc(-c4ccc(C5=CCC(C(=O)O)CC5)cc4)c(Cl)cc3[nH]2)CC1` (stereo not drawn) [MSG012, 4′-(6-Chloro-2-(((1s,4s)-4-(dimethylcarbamoyl)-4-hydroxycyclohexyl)oxy)-1H-imidazo[4,5-b]pyridin-5-yl)-2,3,4,5-tetrahydro-[1,1′-biphenyl]-4-carboxylic acid], for which the Max. fold activation in assay [1] (immobilised α1β1γ1) amounted to 1.9 fold; in assay [2] (immobilised α1β2γ1) it was 1.9 fold; in assay [3] (immobilised α2β1γ1), 6.1 fold; in assay [4] (immobilised α2β2γ1), 2.9 fold. Besides, the EC50 in assay [1] (immobilised α1β1γ1, 0–30 µM activator) was determined as 103 nM; in assay [2] (immobilised α1β2γ1, 0–30 µM activator), 232 nM; in assay [3] (immobilised α2β1γ1, 0–30 µM activator) it was 332 nM; in assay [4] (immobilised α2β2γ1, 0–30 µM activator), 328 nM. Moreover, in assay [5], the “greater potency for α2β2γ1 compared with α1β1γ1” value is given as around 100 fold.

Source of the values: PMC9317966, “Structure-function analysis of the AMPK activator SC4 and identification of a potent pan AMPK activator” (Biochemical Journal, 2022).
